Counter-ions that a name gives are not always drawn. Like-named read-outs stand apart in the source and are kept apart here.
Key:
[1] = cited from earlier work
[2] = cited from earlier work; remark: listed apart in the source
[3] = NAC depletion under and without ultraviolet irradiation, HPLC with UV detection (281 nm); conditions: for NAC Depletion (%) without light irradiation: 25° C. 24 hours light-shielded; for NAC Depletion (%) without light irradiation / NAC Depletion (%) under light irradiation: test substance solution 1 mmol/L; for NAC Depletion (%) under light irradiation: 2,000 μW/cm^2 for 1 hour then 25° C. 23 hours
[4] = NAL depletion under and without ultraviolet irradiation, HPLC with UV detection (281 nm); conditions: for NAL Depletion (%) without light irradiation: 25° C. 24 hours light-shielded; for NAL Depletion (%) without light irradiation / NAL Depletion (%) under light irradiation: test substance solution 1 mmol/L; for NAL Depletion (%) under light irradiation: 2,000 μW/cm^2 for 1 hour then 25° C. 23 hours
[5] = NAC depletion under and without ultraviolet irradiation, HPLC with fluorescence detection (284 nm excitation, 333 nm fluorescence); conditions: single compound
[6] = NAL depletion under and without ultraviolet irradiation, HPLC with fluorescence detection (284 nm excitation, 333 nm fluorescence); conditions: single compound
[7] = Average score of NAC and NAL depletion and phototoxicity or photoallergy determination, fluorescence detection; conditions: under light irradiation, single compound

SMILES: O=C1NC(=O)C(c2ccccc2)(c2ccccc2)N1 [No. 45, Phenytoin]
- In vivo phototoxicity ([1]; literature classification): Negative
- In vivo phototoxicity ([1]; reported in References 1 to 3): Negative
- In vivo photoallergy ([2]; literature classification): Negative
- In vivo photoallergy ([2]; reported in References 1 and 2): Negative

SMILES: COc1c(C(C)(C)C)cc([N+](=O)[O-])c(C)c1[N+](=O)[O-] [No. 17, Musk ambrette]
- In vivo phototoxicity ([1]; literature classification): Negative
- In vivo photoallergy ([2]; literature classification): Positive

SMILES: COc1ccc2ccc(=O)oc2c1 [compound 30, 7-Methoxycoumarin]
- In vivo photoallergy ([2]; reported in References 1 and 2): Positive

SMILES: CCCCCCCCCCCCCC(=O)OC(C)C [compound 52, Isopropyl myristate]
- In vivo phototoxicity ([1]; reported in References 1 to 3): Negative
- In vivo photoallergy ([2]; reported in References 1 and 2): Negative

SMILES: CCCCCCCCCCCCOS(=O)(=O)[O-].[Na+] [compound 56, Sodium lauryl sulfate]
- In vivo phototoxicity ([1]; in vivo): Negative

SMILES: c1ccc2nc3ccccc3cc2c1 [No. 34, Acridine]
- In vivo phototoxicity ([1]; literature classification): Positive
- In vivo photoallergy ([2]; literature classification): Negative

SMILES: CNc1ccccc1C(=O)OC [No. 32, Methyl-N-methylanthranilate]
- In vivo phototoxicity ([1]; literature classification): Positive
- In vivo photoallergy ([2]; literature classification): Negative

SMILES: CCCCCCCCCCCC(=O)O [No. 53, Lauric acid]
- In vivo phototoxicity ([1]; literature classification): Negative
- In vivo photoallergy ([2]; literature classification): Negative

SMILES: CCCCCCCCCCCCCC(=O)OC(C)C [No. 52, Isopropyl myristate]
- In vivo phototoxicity ([1]; literature classification): Negative
- In vivo photoallergy ([2]; literature classification): Negative

SMILES: C=CC1CN2CCC1CC2C(O)c1ccnc2ccc(OC)cc12.Cl.O.O (stereo not shown) [compound 15]
- Difference in depletion (under light irradiation - without light irradiation) NAC (%) [3]: 98.9%
- NAC Depletion (%) without light irradiation [3]: 1.1%
- NAC Depletion (%) under light irradiation [3]: 100.0%
- Difference in depletion (under light irradiation - without light irradiation) NAL (%) [4]: 4.1%
- NAL Depletion (%) without light irradiation [4]: 0.0%
- NAL Depletion (%) under light irradiation [4]: 4.1%
- Difference in depletion (under light irradiation - without light irradiation) NAC (%) [5]: 98.8%
- NAC Depletion (%) ([5]; without light irradiation): 1.0%
- Difference in depletion (under light irradiation - without light irradiation) NAL (%) [6]: 0.7%
- NAL Depletion (%) ([6]; without light irradiation): 0.0%

SMILES: O=C([O-])Cc1ccccc1Nc1c(Cl)cccc1Cl.[Na+] [No. 13, Diclofenac Na, reference compound]
- In vivo photoallergy ([2]; literature classification): Positive
- NAC Depletion (%) ([5]; under light irradiation): 100.0%
- NAL Depletion (%) ([6]; under light irradiation): 0.0%

SMILES: OCC(O)CO [No. 51, Glycerine]
- In vivo phototoxicity ([1]; literature classification): Negative

SMILES: Cc1ccc(C=C2C(=O)C3(C)CCC2C3(C)C)cc1 (stereo not shown) [No. 39, 4′-Methylbenzylidene camphor]
- In vivo phototoxicity ([1]; in vivo): Negative
- In vivo photoallergy ([2]; in vivo): Negative
- Average score (%) [7]: 2.0%

SMILES: c1ccc2cc3ccccc3cc2c1 [compound 35, Anthracene]
- In vivo phototoxicity ([1]; reported in References 1 to 3): Positive
- In vivo photoallergy ([2]; reported in References 1 and 2): Negative

SMILES: CCOc1ccc2c(C)cc(=O)oc2c1 [No. 29, 4-Methyl-7-ethoxycoumarin]
- In vivo photoallergy ([2]; literature classification): Positive

SMILES: CC(=O)c1c(C)c([N+](=O)[O-])c(C(C)(C)C)c([N+](=O)[O-])c1C [No. 33, Musk ketone]
- In vivo phototoxicity ([1]; literature classification): Positive
- In vivo photoallergy ([2]; literature classification): Negative

SMILES: O=C(Nc1ccc(Cl)cc1)Nc1ccc(Cl)c(Cl)c1 [No. 20, Triclocarban]
- In vivo phototoxicity ([1]; literature classification): Negative
- In vivo photoallergy ([2]; literature classification): Positive

SMILES: CCCCCCCCCCCCCCCCO [No. 49, Cetyl alcohol]
- In vivo phototoxicity ([1]; literature classification): Negative
- In vivo photoallergy ([2]; literature classification): Negative

SMILES: O=C(Nc1ccc(Br)cc1)c1cc(Br)cc(Br)c1O [No. 10, Tribromsalan]
- In vivo phototoxicity ([1]; in vivo): Positive
- In vivo photoallergy ([2]; in vivo): Positive

SMILES: C=C[C@H]1CN2CC[C@H]1C[C@H]2[C@H](O)c1ccnc2ccc(OC)cc12.Cl.O.O [No. 15, Quinine HCl (2H2O), reference compound]
- NAC Depletion (%) ([5]; under light irradiation): 99.8%
- NAL Depletion (%) ([6]; under light irradiation): 0.7%

SMILES: CC(CN1c2ccccc2Sc2ccccc21)N(C)C (stereo not shown) [No. 14, Promethazine HCl]
- In vivo phototoxicity ([1]; literature classification): Positive
- In vivo photoallergy ([2]; literature classification): Positive

SMILES: CC(C)OC(=O)C(C)(C)Oc1ccc(C(=O)c2ccc(Cl)cc2)cc1 [No. 38, Fenofibrate]
- In vivo phototoxicity ([1]; literature classification): Positive

SMILES: CC(O)C(=O)O (stereo not shown) [No. 59, Lactic acid]
- In vivo photoallergy ([2]; literature classification): Negative

SMILES: Nc1ccc(S(N)(=O)=O)cc1 [No. 27, Sulfanilamide]
- In vivo photoallergy ([2]; literature classification): Positive

SMILES: CCn1cc(C(=O)O)c(=O)c2cc(F)c(N3CCNCC3)nc21 [No. 6, Enoxacin]
- In vivo phototoxicity ([1]; literature classification): Positive
- In vivo photoallergy ([2]; literature classification): Positive

SMILES: COc1c2ccoc2cc2oc(=O)ccc12 [No. 31, 5-Methoxypsoralen]
- In vivo phototoxicity ([1]; literature classification): Positive
- In vivo photoallergy ([2]; literature classification): Negative

SMILES: CCCCCCCCCCCC(=O)[O-].[Na+] [No. 55, Sodium laurate]
- In vivo photoallergy ([2]; literature classification): Negative

SMILES: Cc1ncc(CO)c(CO)c1O.Cl [compound 9, Pyridoxine HCl]
- In vivo phototoxicity ([1]; in vivo): Positive
- In vivo photoallergy ([2]; in vivo): Positive

SMILES: [Na+].[O-]n1ccccc1=S [No. 26, Omadine (Na salt)]
- In vivo photoallergy ([2]; in vivo): Positive

SMILES: COC(=O)c1ccccc1O [No. 43, Methyl salicylate]
- In vivo phototoxicity ([1]; literature classification): Negative
- In vivo photoallergy ([2]; literature classification): Negative

SMILES: CN(C)CCCN1c2ccccc2Sc2ccc(Cl)cc21 [No. 1, Chlorpromazine HCl]
- In vivo phototoxicity ([1]; literature classification): Positive
- In vivo photoallergy ([2]; literature classification): Positive

SMILES: CC(=O)Oc1ccccc1C(=O)O [No. 40, Aspirin]
- In vivo phototoxicity ([1]; literature classification): Negative
- In vivo photoallergy ([2]; literature classification): Negative

SMILES: CN(C)C1C(O)=C(C(N)=O)C(=O)C2(O)C(O)=C3C(=O)c4c(O)cccc4C(C)(O)C3CC12 (stereo not shown) [compound 36]
- In vivo photoallergy ([2]; reported in References 1 and 2): Negative
- NAC Depletion (%) without light irradiation [3]: −59.4%
- NAC Depletion (%) under light irradiation [3]: 44.6%
- Difference in depletion (under light irradiation - without light irradiation) NAL (%) [4]: 22.5%
- NAL Depletion (%) without light irradiation [4]: 5.1%
- NAL Depletion (%) under light irradiation [4]: 27.6%
- Difference in depletion (under light irradiation - without light irradiation) NAC (%) [5]: 43.4%
- NAC Depletion (%) ([5]; without light irradiation): 56.6%
- Difference in depletion (under light irradiation - without light irradiation) NAL (%) [6]: 25.6%
- NAL Depletion (%) ([6]; without light irradiation): 3.0%

SMILES: CCOC(=O)c1ccc(N)cc1 [No. 41, Benzocaine]
- In vivo phototoxicity ([1]; literature classification): Negative
- In vivo photoallergy ([2]; literature classification): Negative

SMILES: O=C(c1ccccc1)c1ccccc1 [No. 4, Benzophenone]
- In vivo photoallergy ([2]; in vivo): Positive

SMILES: CCO [No. 50, Ethanol]
- In vivo phototoxicity ([1]; in vivo): Negative
- In vivo photoallergy ([2]; in vivo): Negative
- Average score (%) [7]: 0.0%

SMILES: COC(=O)c1ccccc1O [compound 43, Methyl salicylate]
- In vivo phototoxicity ([1]; reported in References 1 to 3): Negative
- In vivo photoallergy ([2]; reported in References 1 and 2): Negative

SMILES: Cc1ccc2oc(=O)ccc2c1 [No. 2, 6-Methylcoumarin]
- In vivo phototoxicity ([1]; literature classification): Positive
- In vivo photoallergy ([2]; literature classification): Positive

SMILES: CCCCCCCCCCCC(=O)[O-].[Na+] [compound 55, Sodium laurate]
- In vivo phototoxicity ([1]; in vivo): Negative
- In vivo photoallergy ([2]; reported in References 1 and 2): Negative

SMILES: Nc1ccc(N)cc1 [No. 11, p-Phenylenediamine]
- In vivo photoallergy ([2]; literature classification): Positive

SMILES: O=C([O-])Cc1ccccc1Nc1c(Cl)cccc1Cl.[Na+] [compound 13]
- In vivo photoallergy ([2]; reported in References 1 and 2): Positive
- Difference in depletion (under light irradiation - without light irradiation) NAC (%) [3]: 99.4%
- NAC Depletion (%) without light irradiation [3]: 0.6%
- NAC Depletion (%) under light irradiation [3]: 100.0%
- NAL Depletion (%) without light irradiation [4]: 0.0%
- NAL Depletion (%) under light irradiation [4]: −4.1%
- Difference in depletion (under light irradiation - without light irradiation) NAC (%) [5]: 100.0%
- NAC Depletion (%) ([5]; without light irradiation): 0.0%
- Difference in depletion (under light irradiation - without light irradiation) NAL (%) [6]: 0.0%
- NAL Depletion (%) ([6]; without light irradiation): 0.0%

SMILES: NNC(=O)c1ccncc1 [No. 25, Isoniazid]
- In vivo photoallergy ([2]; literature classification): Positive

SMILES: COc1ccc2ccc(=O)oc2c1 [7-Methoxy coumarin]
- In vivo photoallergy ([2]; literature classification): Positive

SMILES: c1ccc2cc3ccccc3cc2c1 [No. 35, Anthracene]
- In vivo phototoxicity ([1]; literature classification): Positive
- In vivo photoallergy ([2]; literature classification): Negative

SMILES: c1ccc2nc3ccccc3cc2c1 [compound 34, Acridine]
- In vivo phototoxicity ([1]; reported in References 1 to 3): Positive
- In vivo photoallergy ([2]; reported in References 1 and 2): Negative

SMILES: CCCCCCCCCCCC(=O)O [compound 53, Lauric acid]
- In vivo phototoxicity ([1]; reported in References 1 to 3): Negative
- In vivo photoallergy ([2]; reported in References 1 and 2): Negative

SMILES: Oc1c(Cl)cc(Cl)cc1Sc1cc(Cl)cc(Cl)c1O [No. 5, Bithionol]
- In vivo phototoxicity ([1]; literature classification): Positive
- In vivo photoallergy ([2]; literature classification): Positive

SMILES: Oc1ccc(Cl)cc1Sc1cc(Cl)ccc1O [No. 22, Fenticlor]
- In vivo photoallergy ([2]; literature classification): Positive

SMILES: CN1C(C(=O)Nc2ccccn2)=C(O)c2ccccc2S1(=O)=O [No. 8, Piroxicam]
- In vivo phototoxicity ([1]; literature classification): Positive
- In vivo photoallergy ([2]; literature classification): Positive

SMILES: CNc1ccccc1C(=O)OC [compound 32, Methyl-N-methylanthranilate]
- In vivo phototoxicity ([1]; reported in References 1 to 3): Positive
- In vivo photoallergy ([2]; reported in References 1 and 2): Negative

SMILES: Nc1ccc(N)cc1 [compound 11, p-Phenylenediamine]
- In vivo phototoxicity ([1]; in vivo): Positive
- In vivo photoallergy ([2]; reported in References 1 and 2): Positive

SMILES: NS(=O)(=O)c1cc2c(cc1Cl)NCNS2(=O)=O [No. 24, Hydrochlorothiazide]
- In vivo photoallergy ([2]; literature classification): Positive

SMILES: COc1cc(O)c(C(=O)c2ccccc2)cc1S(=O)(=O)O [No. 57, Sulisobenzone]
- In vivo phototoxicity ([1]; literature classification): Negative
- In vivo photoallergy ([2]; literature classification): Negative

SMILES: CN(C)[C@@H]1C(=O)C(C(N)=O)=C(O)[C@@]2(O)C(=O)C3=C(O)c4c(O)cccc4[C@@](C)(O)[C@H]3C[C@@H]12 [No. 36, Tetracycline, reference compound]
- In vivo photoallergy ([2]; literature classification): Negative
- Average score (%) [7]: 64.3%
- NAC Depletion (%) ([5]; under light irradiation): 100.0%
- NAL Depletion (%) ([6]; under light irradiation): 28.6%
